Patent publication US8735397B2, “Method for treating schizophrenia and related diseases” (Vanderbilt University, priority 2010, dated 2014)
Entries after “also recorded” stand apart in the source; their conditions may differ. Where a name gives a salt, the structure may show the parent alone.

Tests used:
[1] = test system: PCP-induced NOR deficits in sub-chronic PCP treated rats; assay: Novel object recognition (NOR) test after subchronic PCP treatment; type: in vivo, Female Long-Evans rats; details: for Acquisition (sec) Left, exploration time / Acquisition (sec) Right, exploration time / Retention (sec) Familiar, exploration time / Retention (sec) Novel, exploration time: mean±SEM; for Effective dose for reversing PCP-induced NOR deficits / Sub-effective dose in PCP-induced NOR deficit: single agent, acute administration after subchronic PCP
Protocol: Female Long-Evans rats received vehicle or PCP (2 mg/kg, i.p.) twice daily for 7 days, followed by a 7-day washout period (n=6-9/group). Phencyclidine (PCP) which is known to induce schizophrenia-like symptoms in human normal subjects and to exacerbate symptoms in patients with schizophrenia was dissolved in distilled water and administered in a volume of 1 ml/kg.
On the test day, in the first set of experiments, lurasidone HCl (0.03 and 0.1 mg/kg; produced by Dainippon Sumitomo Pharma Co., Ltd.), clozapine (0.3 mg/kg), LY379268 (1 mg/kg; Tocris Bioscience) alone, or haloperidol (0.1 mg/kg), pimavanserin (3 mg/kg), lurasidone HCl (0.03 mg/kg), clozapine (0.1 mg/kg) in combination with LY379268 (1 mg/kg) were administered intraperitoneally in a volume of 1 ml/kg, 30 min before the novel object recognition (NOR) test. In the second set of experiments, LY404039 (1 mg/kg; produced by Dainippon Sumitomo Pharma Co., Ltd.) alone was orally administered in a volume of 4 ml/kg 60 min before the novel object recognition (NOR) test. For combination with lurasidone HCl, LY404039 (1 mg/kg, p.o.) and lurasidone HCl (0.03 mg/kg, i.p.) were administered 60 min and 30 min before the novel object recognition (NOR) test, respectively. In the third set of experiments, BINA (30 mg/kg; produced by Dainippon Sumitomo Pharma Co., Ltd.) alone or BINA (30 mg/kg) in combination with lurasidone HCl (0.03 mg/kg) was administered intraperitoneally in a volume of 1 ml/kg 30 min before the novel object recognition (NOR) test.
Haloperidol, pimavanserin, and LY404039 were dissolved in distilled water. Lurasidone HCl was dissolved 0.5% methylcellulose, 0.2% Tween 80. Clozapine was dissolved in a small amount of 0.1 M phosphoric acid, and the pH was adjusted to 6 to 7 with 0.1 N NaOH. LY379268 was dissolved in saline. BINA was dissolved in 10% Tween 80, 10% 1N NaOH, and the pH was adjusted to 7 with 1N HCl.
The object recognition test was performed in an open field comprising a square box made of Plexiglas (52/52/31 cm) placed 37 cm above the floor on an immoveable stand. The floor of the box was white with black gridlines forming nine identical squares on it. All other walls were black. A video camera connected to a video recorder and monitor was positioned above the box. The objects used for the test consisting of four heavy pyramidal structures made of metal or Perspex that could not be displaced by the animals. Care was taken to ensure that these objects were not of any natural significance to the rats.
Testing was carried out according to a previously validated method (Grayson et al., Behay. Brain Res. 2007 184, 31-38; Snigdha et al., J. Pharmacol. Exp. Ther., 2010 332 (2), 622-31). The rats were familiarized to the test environment and NOR arena before the test day. Habituation consisting of placing the subjects in the empty NOR arena for 1 h, on the day before the test day (day 1). Before behavioral testing on day 2, rats were given a further 3-min habituation. For each experimental trial after the 3-min habituation period, the rats were given two 3-min trials (T1 and T2), separated by a 1-min intertrial interval in the home cage during which the objects were changed and the arena was cleaned. In Trial 1 (T1) or the acquisition trial, the animals were allowed to explore two identical objects (A1 and A2) for 3 min. In the second trial (T2) or the retention trial, the animals explored a familiar object (A) from T1 and a novel object (B) for 3 min. The familiar object presented during T2 was a duplicate of the object presented in T1 to avoid any olfactory trails. Each rat was tested three or four times in the NOR paradigm. To reduce carryover effects, a 7-day washout period was given between each of the test sessions. The criterion for continuing to test the rats was based on mean total exploration time in the acquisition or retention phase 5 seconds. […] This happened rarely and not enough to affect the ability to use the remaining animals for analysis. […]

[2] = target: T1, noradrenaline α2C receptor (Homo sapiens, UniProt P18825); details: cited from earlier work
T1 sequence (P18825 1-462): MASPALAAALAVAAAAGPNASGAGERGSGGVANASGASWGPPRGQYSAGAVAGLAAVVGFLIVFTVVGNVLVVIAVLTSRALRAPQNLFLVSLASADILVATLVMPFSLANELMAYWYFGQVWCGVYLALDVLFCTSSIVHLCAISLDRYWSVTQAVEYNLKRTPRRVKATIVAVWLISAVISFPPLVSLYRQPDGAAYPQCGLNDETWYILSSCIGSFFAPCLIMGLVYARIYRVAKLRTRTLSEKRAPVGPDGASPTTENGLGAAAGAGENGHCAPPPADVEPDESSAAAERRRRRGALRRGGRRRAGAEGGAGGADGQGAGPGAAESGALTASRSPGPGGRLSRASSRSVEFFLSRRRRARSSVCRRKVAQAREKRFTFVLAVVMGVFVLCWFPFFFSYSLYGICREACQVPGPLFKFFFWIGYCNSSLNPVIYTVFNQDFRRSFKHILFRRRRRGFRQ

muscarinic M1 receptor = target: T2, muscarinic M1 receptor (Homo sapiens, UniProt P11229); details: cited from earlier work
T2 sequence (P11229 1-460): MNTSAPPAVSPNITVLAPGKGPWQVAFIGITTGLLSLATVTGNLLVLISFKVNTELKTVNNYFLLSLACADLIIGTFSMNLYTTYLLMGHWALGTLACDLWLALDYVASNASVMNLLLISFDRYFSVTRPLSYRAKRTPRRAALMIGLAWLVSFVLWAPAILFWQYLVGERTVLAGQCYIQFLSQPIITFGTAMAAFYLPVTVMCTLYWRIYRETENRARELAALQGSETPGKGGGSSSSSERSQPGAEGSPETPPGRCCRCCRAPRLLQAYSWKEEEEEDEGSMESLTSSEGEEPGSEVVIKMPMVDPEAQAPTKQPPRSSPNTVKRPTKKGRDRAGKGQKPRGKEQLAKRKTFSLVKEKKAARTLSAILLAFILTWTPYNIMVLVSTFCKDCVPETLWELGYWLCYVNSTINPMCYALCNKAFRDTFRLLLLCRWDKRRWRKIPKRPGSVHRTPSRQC

dopamine D2 receptor = dopamine D2 receptor (Homo sapiens, UniProt P14416); details: cited from earlier work
Sequence of dopamine D2 receptor (P14416 whole entry): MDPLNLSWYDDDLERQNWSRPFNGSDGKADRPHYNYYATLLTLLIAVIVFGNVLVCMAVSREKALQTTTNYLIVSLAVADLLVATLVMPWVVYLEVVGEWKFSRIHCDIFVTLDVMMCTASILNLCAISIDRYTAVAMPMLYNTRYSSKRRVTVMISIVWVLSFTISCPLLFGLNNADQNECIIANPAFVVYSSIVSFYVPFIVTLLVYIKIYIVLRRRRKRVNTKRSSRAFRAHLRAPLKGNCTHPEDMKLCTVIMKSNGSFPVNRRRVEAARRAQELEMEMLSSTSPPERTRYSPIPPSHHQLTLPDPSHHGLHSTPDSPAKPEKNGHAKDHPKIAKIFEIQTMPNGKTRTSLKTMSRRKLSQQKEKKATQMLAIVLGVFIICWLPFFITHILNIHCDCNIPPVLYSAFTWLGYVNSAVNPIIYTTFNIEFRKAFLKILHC

[3] = target: T3, serotonin 5-HT1A receptor (Homo sapiens, UniProt P08908); details: cited from earlier work
T3 sequence (P08908 1-422): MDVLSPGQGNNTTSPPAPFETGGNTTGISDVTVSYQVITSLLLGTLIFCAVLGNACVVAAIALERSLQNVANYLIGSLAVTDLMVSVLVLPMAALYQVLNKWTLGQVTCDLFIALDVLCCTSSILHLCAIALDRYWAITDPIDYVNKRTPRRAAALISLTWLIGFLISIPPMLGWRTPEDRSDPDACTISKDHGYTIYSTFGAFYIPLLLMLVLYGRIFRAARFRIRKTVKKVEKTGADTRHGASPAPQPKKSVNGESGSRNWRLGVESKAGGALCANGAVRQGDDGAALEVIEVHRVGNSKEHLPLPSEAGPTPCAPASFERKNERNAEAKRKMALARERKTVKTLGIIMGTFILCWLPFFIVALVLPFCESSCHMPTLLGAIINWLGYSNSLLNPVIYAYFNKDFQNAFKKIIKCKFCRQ

serotonin 5-HT7 receptor = serotonin 5-HT7 receptor (Homo sapiens, UniProt P34969); details: cited from earlier work
Sequence of serotonin 5-HT7 receptor (P34969 whole entry): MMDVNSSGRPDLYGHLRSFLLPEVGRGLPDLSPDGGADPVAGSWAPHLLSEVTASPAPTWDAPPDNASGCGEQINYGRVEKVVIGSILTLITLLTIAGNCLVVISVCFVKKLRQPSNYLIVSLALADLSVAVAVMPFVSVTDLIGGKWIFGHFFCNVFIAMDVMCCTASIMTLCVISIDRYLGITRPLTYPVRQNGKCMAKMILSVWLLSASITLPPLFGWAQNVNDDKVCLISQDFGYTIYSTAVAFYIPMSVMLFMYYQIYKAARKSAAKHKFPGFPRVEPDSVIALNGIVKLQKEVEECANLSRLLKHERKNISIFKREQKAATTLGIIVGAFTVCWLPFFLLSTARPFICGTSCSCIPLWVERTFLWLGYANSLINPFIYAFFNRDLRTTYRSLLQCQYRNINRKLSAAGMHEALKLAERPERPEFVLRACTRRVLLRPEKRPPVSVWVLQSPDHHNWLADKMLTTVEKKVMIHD

[4] = target: serotonin 5-HT2A receptor (Homo sapiens, UniProt P28223); details: cited from earlier work
Sequence of serotonin 5-HT2A receptor (P28223 whole entry): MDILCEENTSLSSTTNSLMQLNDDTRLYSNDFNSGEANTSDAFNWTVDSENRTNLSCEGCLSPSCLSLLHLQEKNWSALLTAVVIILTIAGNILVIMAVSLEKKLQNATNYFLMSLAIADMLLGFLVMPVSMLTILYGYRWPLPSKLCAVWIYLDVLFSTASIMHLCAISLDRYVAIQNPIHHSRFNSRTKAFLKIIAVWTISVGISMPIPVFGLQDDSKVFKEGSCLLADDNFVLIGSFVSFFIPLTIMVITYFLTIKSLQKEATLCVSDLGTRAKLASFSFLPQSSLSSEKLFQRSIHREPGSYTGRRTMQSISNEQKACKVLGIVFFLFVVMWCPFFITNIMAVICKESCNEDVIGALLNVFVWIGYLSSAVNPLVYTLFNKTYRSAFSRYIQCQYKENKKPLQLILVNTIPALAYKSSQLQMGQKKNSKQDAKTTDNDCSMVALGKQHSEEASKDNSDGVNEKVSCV

histamine H1 receptor = histamine H1 receptor (Homo sapiens, UniProt P35367); details: cited from earlier work
Sequence of histamine H1 receptor (P35367 whole entry): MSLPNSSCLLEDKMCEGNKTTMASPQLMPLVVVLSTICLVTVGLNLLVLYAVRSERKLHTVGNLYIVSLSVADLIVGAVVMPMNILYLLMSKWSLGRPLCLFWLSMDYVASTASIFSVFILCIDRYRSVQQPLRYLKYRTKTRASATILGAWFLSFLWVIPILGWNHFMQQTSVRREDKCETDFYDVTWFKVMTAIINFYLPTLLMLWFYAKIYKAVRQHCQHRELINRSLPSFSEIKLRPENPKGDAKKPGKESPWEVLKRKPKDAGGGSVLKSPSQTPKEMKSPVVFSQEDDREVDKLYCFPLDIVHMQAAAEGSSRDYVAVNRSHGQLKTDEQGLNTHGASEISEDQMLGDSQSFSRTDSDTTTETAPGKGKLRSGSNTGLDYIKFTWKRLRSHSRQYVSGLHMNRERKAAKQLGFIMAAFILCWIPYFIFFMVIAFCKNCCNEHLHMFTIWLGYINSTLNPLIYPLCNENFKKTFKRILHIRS

[5] = PCP + BINA 30 mg/kg i.p. 30 min before NOR, n=7 to 9
[6] = PCP + clozapine 0.1 mg/kg, n=6 to 8
[7] = PCP + clozapine 0.3 mg/kg i.p. 30 min before NOR, n=6 to 8
[8] = PCP + LY379268 1 mg/kg i.p. 30 min before NOR, n=6 to 8
[9] = PCP + LY404039 1 mg/kg p.o. 60 min before NOR, n=7 to 8
[10] = PCP + lurasidone HCl 0.03 mg/kg i.p. 30 min before NOR, n=7 to 8
[11] = PCP + lurasidone HCl 0.1 mg/kg i.p. 30 min before NOR, n=7 to 8

## Cc1c(OCc2cccc(-c3ccc(C(=O)O)cc3)c2)cc2c(c1C)C(=O)C(C1CCCC1)C2 (stereo not shown) [BINA, 3′-(2-Cyclopentyl-6,7-dimethyl-1-oxoindan-5-yloxy-methyl)biphenyl-4-carboxylic acid]
[1]; BINA alone 30 mg/kg i.p.
  Effect on PCP-induced NOR deficits: did not attenuate the PCP-induced NOR deficits; also recorded: did not improve the PCP-induced deficit in NOR
[1]; [5]
  Acquisition (sec) Left, exploration time: 9.8 ± 1.5 s
  Acquisition (sec) Right, exploration time: 10.7 ± 2.0 s
  Retention (sec) Familiar, exploration time: 6.0 ± 1.1 s
  Retention (sec) Novel, exploration time: 7.9 ± 1.0 s

## CN1CCN(C2=Nc3cc(Cl)ccc3Nc3ccccc32)CC1 [Clozapine]
[1]; [6]
  Acquisition (sec) Left, exploration time: 12.7 ± 3.5 s
  Acquisition (sec) Right, exploration time: 10.6 ± 2.1 s
  Retention (sec) Familiar, exploration time: 9.1 ± 1.9 s
  Retention (sec) Novel, exploration time: 11.0 ± 2.8 s
[1]; [7]
  Acquisition (sec) Left, exploration time: 13.1 ± 2.9 s
  Acquisition (sec) Right, exploration time: 11.4 ± 2.5 s
  Retention (sec) Familiar, exploration time: 7.3 ± 1.7 s
  Retention (sec) Novel, exploration time: 16.3 ± 2.8 s
[1]
  Effective dose for reversing PCP-induced NOR deficits: 0.3 mg/kg
  Sub-effective dose in PCP-induced NOR deficit: 0.1 mg/kg

## N[C@@]1(C(=O)O)CO[C@H]2[C@H](C(=O)O)[C@H]21 [LY379268, (1R,4R,5S,6R)-4-Amino-2-oxabicyclo[3.1.0]hexane-4,6-dicarboxylic acid]
[1]; LY379268 alone 1 mg/kg i.p.
  Effect on PCP-induced NOR deficits: did not attenuate the PCP-induced NOR deficits; also recorded: did not attenuate the PCP-induced deficit in NOR
[1]; [8]
  Acquisition (sec) Left, exploration time: 12.4 ± 2.6 s
  Acquisition (sec) Right, exploration time: 11.0 ± 4.2 s
  Retention (sec) Familiar, exploration time: 8.3 ± 1.5 s
  Retention (sec) Novel, exploration time: 9.7 ± 2.2 s

## N[C@@]1(C(=O)O)CS(=O)(=O)[C@H]2[C@H](C(=O)O)[C@H]21 [LY404039, (−)-(1R,4S,5S,6S)-4-Amino-2-thiabicyclo[3.1.0]hexane-4,6-dicarboxylic acid S,S-dioxide]
[1]; LY404039 alone 1 mg/kg p.o.
  Effect on PCP-induced NOR deficits: did not attenuate the PCP-induced NOR deficits; also recorded: did not improve the PCP-induced deficit in NOR
[1]; [9]
  Acquisition (sec) Left, exploration time: 9.3 ± 0.8 s
  Acquisition (sec) Right, exploration time: 8.4 ± 0.9 s
  Retention (sec) Familiar, exploration time: 5.5 ± 1.1 s
  Retention (sec) Novel, exploration time: 7.3 ± 0.8 s

## O=C1[C@@H]2[C@H]3CC[C@H](C3)[C@@H]2C(=O)N1C[C@@H]1CCCC[C@H]1CN1CCN(c2nsc3ccccc23)CC1 [Lurasidone HCl]
[1]; [10]
  Acquisition (sec) Left, exploration time: 11.4 ± 3.1 s
  Acquisition (sec) Right, exploration time: 8.3 ± 1.8 s
  Retention (sec) Familiar, exploration time: 7.6 ± 2.3 s
  Retention (sec) Novel, exploration time: 8.9 ± 1.7 s
[1]; [11]
  Acquisition (sec) Left, exploration time: 10.9 ± 1.3 s
  Acquisition (sec) Right, exploration time: 10.9 ± 0.8 s
  Retention (sec) Familiar, exploration time: 4.6 ± 1.0 s
  Retention (sec) Novel, exploration time: 11.4 ± 2.2 s
[1]
  Effective dose for reversing PCP-induced NOR deficits: 0.1 mg/kg

## O=C1[C@@H]2[C@H]3CC[C@H](C3)[C@@H]2C(=O)N1C[C@@H]1CCCC[C@H]1CN1CCN(c2nsc3ccccc23)CC1 [Lurasidone, (3aR,4S,7R,7aS)-2-{(1R,2R)-2-[4-(1,2-benzisothiazol-3-yl)piperazin-1-ylmethyl]cyclo-hexylmethyl}hexahydro-4,7-methano-2H-isoindole-1,3-dione]
[2]
  Affinity for noradrenaline α2C receptors: high affinity
Muscarinic M1 receptor
  Affinity for muscarinic M1 receptors: minimal to no affinity
Dopamine D2 receptor
  Affinity for dopamine D2 receptors: high affinity
[3]
  Affinity for serotonin 5-HT1A receptors: high affinity
Serotonin 5-HT7 receptor
  Affinity for serotonin 5-HT7 receptors: high affinity
[1]
  Effective dose for reversing PCP-induced NOR deficits: 0.1 mg/kg
  Sub-effective dose in PCP-induced NOR deficit: 0.03 mg/kg
[4]
  Affinity for serotonin 5-HT2A receptors: high affinity
Histamine H1 receptor
  Affinity for histamine H1 receptors: minimal to no affinity
